Measured values as given in patent US12180226B2, “Spirotricycle RIPK1 inhibitors and methods of uses thereof” (Merck Sharp & Dohme LLC, priority 2021, dated 2024).
Where a name gives a salt, the structure may show the parent alone.

Target: RIPK1 (recombinant GST-RIPK1 kinase domain, residues 1-327) (Homo sapiens (Human), UniProt Q13546)
Assay: RIPK1-ADP-Glo Enzymatic Assay
Format: biochemical
Conditions: ADP-Glo; 25 nM GST-RIPK1, 300 μM ATP; assay lower limit ~25 nM; read-out: RIPK1 V0 Ec50
Outline: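 GST-tagged kinase domain (residues 1-327, Sf21-expressed), 25 nM, pre-incubated 30 min with compound at ambient temperature, then reacted 150 min with 300 μM ATP and 3 μM dephosphorylated MBP in HEPES pH 7.3 buffer. ADP measured by ADP-Glo luminescence; EC50 from ten-point titration (top 100000 nM), four-parameter fit.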

Chain of RIPK1 (recombinant GST-RIPK1 kinase domain, residues 1-327) (Q13546 1-327): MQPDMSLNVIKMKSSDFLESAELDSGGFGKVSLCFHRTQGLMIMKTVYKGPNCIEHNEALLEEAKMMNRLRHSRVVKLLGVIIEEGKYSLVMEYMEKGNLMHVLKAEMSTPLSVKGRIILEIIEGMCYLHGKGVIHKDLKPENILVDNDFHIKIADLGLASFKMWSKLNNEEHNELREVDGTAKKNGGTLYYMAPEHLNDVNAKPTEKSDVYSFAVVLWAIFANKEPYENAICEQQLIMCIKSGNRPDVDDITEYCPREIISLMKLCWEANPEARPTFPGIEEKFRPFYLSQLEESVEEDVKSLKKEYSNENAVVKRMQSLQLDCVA

EC50 | Structure (SMILES)
138 nM | Cc1cc(C(=O)N2CCC3(CC2)O[C@@H]2CC[C@@H](c4cc(F)cc(F)c4)N2C3=O)ccc1C#N [Example 5.18, 4-((5′S,7a′R)-5′-(3,5-difluorophenyl)-3′-oxo-tetrahydro-3′H-spiro [piperidine-4,2′-pyrrolo-[2,1-b]oxazole]-1-carbon-yl)-2-methylbenzonitrile]
< 25 nM | O=C1N2[C@@H](CC[C@H]2c2cncc(F)c2)OC12CCN(c1ccnc3c(F)cnn13)CC2 [Example 4.49, (5′S,7a′R)-1-(3-fluoropyrazolo[1,5-a]pyrimidin-7-yl)-5′-(5-fluoropyridin-3-yl)tetrahydro-3′H-spiro[piperidine-4,2′-pyrrolo[2,1-b] [1,3]oxazol]-3′-one]
< 25 nM | CCOc1ccc(N2CCC3(CC2)O[C@@H]2CC[C@@H](c4cc(F)cc(F)c4)N2C3=O)n2nccc12 [Example 19.2, (5′S,7a′R)-5′-(3,5-difluorophenyl)-1-(4-ethoxypyrazolo[1,5-a]pyridin-7-yl)tetrahydro-3′H-spiro[piperidine-4,2′-pyrrolo[2,1-b]oxazol]-3′-one, TFA salt]
43.8 nM | O=C(c1ccccc1)N1CCC2(CC1)O[C@@H]1[C@@H](F)C[C@@H](c3ccccc3)N1C2=O [Example 6.108, (5′S,7′S,7a′R)-1-(benzenecarbonyl)-7′-fluoro-5′-phenyl-tetrahydro-3′H-spiro [piperidine-4,2′-pyrrolo[2,1-b][1,3]-oxazol]-3′-one]
208 nM | O=C1N2[C@@H](CC[C@H]2c2cc(F)cc(F)c2)OC12CCN(c1ccc(OCC3CCO3)c3ccnn13)CC2 (mixture of isomers) [Example 19.5, (5′S,7a′R)-5′-(3,5-difluorophenyl)-1-(4-(((R and S)-oxetan-2-yl)methoxy)pyrazolo [1,5-a]pyridin-7-yl)tetrahydro-3′H-spiro[piperidine-4,2′-pyrrolo[2,1-b]oxazol]-3′-one, TFA salt]
< 25 nM | N#Cc1ccc(N2CCC3(CC2)O[C@@H]2CC[C@@H](c4ccccc4)N2C3=O)n2ncc(F)c12 [Example 4.177, 3-fluoro-7-[(5′S,7a′R)-3′-oxo-5′-phenyltetrahydro-1H,3′H-spiro[piperidine-4,2′-pyrrolo[2,1-b] [1,3]oxazol]-1-yl]pyrazolo[1,5-a] pyridine-4-carbonitrile]
< 25 nM | O=C(c1cccc(F)c1)N1CCC2(CC1)O[C@@H]1CC[C@@H](c3cccc(F)c3)N1C2=O [Example 6.116, (5′S,7a′R)-1-(3-fluoro-benzene-1-carbonyl)-5′-(3-fluorophenyl)-tetrahydro-3′H-spiro [piperidine-4,2′-pyrrolo[2,1-b][1,3]oxazol]-3′-one]
25.4 nM | COC(=O)c1cnc(N2CCC3(CC2)O[C@@H]2CC[C@@H](c4ccccc4)N2C3=O)nc1C [Example 4.189, methyl 4-methyl-2-[(5′S,7a′R)-3′-oxo-5′-phenyltetrahydro-1H,3′H-spiro[piperidine-4,2′-pyrrolo[2,1-b] [1,3]oxazol]-1-yl]pyrimidine-5-carboxylate]
363 nM | O=C1N2[C@@H](CC[C@H]2c2cc(F)cc(F)c2)OC12CCN(c1ccnc3ncnn13)CC2 [Example 4.83, (5′S,7a′R)-1-([1,2,4]triazolo[1,5-a]pyrimidin-7-yl)-5′-(3,5-difluorophenyl)tetrahydro-3′H-spiro[piperidine-4,2′-pyrrolo[2,1-b]oxazol]-3′-one, TFA salt]
< 25 nM | Cn1cnc(-c2ccc(N3CCC4(CC3)O[C@@H]3CC[C@@H](c5ccccc5)N3C4=O)n3ncnc23)c1 [Example 21.21, (5′S,7a′R)-1-[8-(1-methyl-1H-imidazol-4-yl)[1,2,4]triazolo[1,5-a]pyridin-5-yl]-5′-phenyltetrahydro-3′H-spiro[piperidine-4,2′-pyrrolo[2,1-b][l,3]oxazol]-3′-one]
191 nM | COc1ccnc(N2CCC3(CC2)O[C@@H]2CC[C@@H](c4ccccc4)N2C3=O)c1 [Example 11.30, (5′S,7a′R)-1-(4-methoxypyridin-2-yl)-5′-phenyltetrahydro-3′H-spiro[piperidine-4,2′-pyrrolo[2,1-b][1,3]oxazol]-3′-one]
135 nM | O=C(c1cnc2cnccn12)N1CCC2(CC1)O[C@@H]1CC[C@@H](c3cc(F)cc(F)c3)N1C2=O [Example 5.67, (5′S,7a′R)-5′-(3,5-difluoro-phenyl)-1-(imidazo[1,2-a]pyrazine-3-carbonyl)-tetrahydro-3′H-spiro [piperidine-4,2′-pyrrolo-[2,1-b]oxazol]-3′-one]
26.4 nM | O=C1N2[C@@H](CC[C@H]2c2ccccc2)OC12CCN(c1cc(-c3ccco3)ccn1)CC2 [Example 4.169, (5′S,7a′R)-1-[4-(furan-2-yl)pyridin-2-yl]-5′-phenyltetrahydro-3′H-spiro[piperidine-4,2′-pyrrolo[2,1-b] [1,3]oxazol]-3′-one]
841 nM | CC1CC2(CCN1C(=O)c1ccccc1)O[C@@H]1CC[C@@H](c3cc(F)cc(F)c3)N1C2=O (stereo partly drawn) [Example 6.105, (4R,5′S,7a′R)-1-(benzenecarbonyl)-5′-(3,5-difluorophenyl)-2-methyltetrahydro-3′H-spiro[piperidine-4,2′-pyrrolo[2,1-b] [1,3]oxazol]-3′-one]
26.1 nM | O=C(c1ccccc1)N1CCC2(CC1)O[C@@H]1CC[C@@H](c3ccc4sccc4c3)N1C2=O [Example 17.2, (5′S,7a′R)-5′-(benzo[b]thiophen-5-yl)-1-benzoyltetrahydro-3′H-spiro[piperidine-4,2′-pyrrolo[2,1-b]oxazol]-3′-one]
24.9 nM | O=C1N2[C@@H](CC[C@H]2c2ccccc2F)OC12CN(c1cccc3ncnn13)C2 [Example 13.20, (5′S,7a′R)-1-([1,2,4]triazolo[1,5-a]pyridin-5-yl)-5′-(2-fluorophenyl)tetrahydro-3′H-spiro[azetidine-3,2′-pyrrolo[2,1-b]oxazol]-3′-one, TFA salt]
< 25 nM | O=C(c1cccc(F)c1F)N1CCC2(CC1)O[C@@H]1CC[C@@H](c3ccccc3)N1C2=O [Example 5.9, (5′S,7a′R)-1-(2,3-difluorobenzene-1-car-bonyl)-5′-phenyltetra-hydro-3′H-spiro[piperi-dine-4,2′-pyrrolo[2,1-b] [1,3]oxazol]-3′-one]
< 25 nM | O=C(c1c(F)cc(F)cc1F)N1CCC2(CC1)O[C@@H]1CC[C@@H](c3ccccc3)N1C2=O [Example 5.8, (5′S,7a′R)-5′-phenyl-1-(2,4,6-trifluorobenzene-1-carbonyl)tetrahydro-3′H-spiro[piperidine-4,2′-pyrrolo[2,1-b][1,3]oxazol]-3′-one]
< 25 nM | O=C1N2[C@@H](CC[C@H]2c2ccccc2)OC12CCN(c1ccc(Cl)c3ncnn13)CC2 [Example 15.3, (5′S,7a′R)-1-(8-chloro-[1,2,4]triazolo[1,5-a]pyridin-5-yl)-5′-phenyltetrahydro-3′H-spiro[piperidine-4,2′-pyrrolo[2,1-b]oxazol]-3′-one, TFA salt]
45.4 nM | Cn1cc([C@@H]2CC[C@H]3OC4(CCN(c5ccc(C#N)c6ncnn56)CC4)C(=O)N32)cn1 [Example 20.1, 5-((5′S,7a′R)-5′-(1-Methyl-1H-pyrazol-4-yl)-3′-oxotetrahydro-3′H-spiro[piperidine-4,2′-pyrrolo[2,1-b]oxazol]-1-yl)-[1,2,4]triazolo[1,5-a]pyridine-8-carbonitrile]
129 nM | O=C(c1ccn(C(F)F)n1)N1CCC2(CC1)O[C@@H]1CC[C@@H](c3cc(F)cc(F)c3)N1C2=O [Example 5.41]
